According to patent US20100028406A1, “TOPICAL DRUG DELIVERY BY IONTOPHORESIS” (UNIVERSITE DE GENEVE, priority 2005, published 2010):
Converted amounts (≈) assume the structure as drawn. Where two headings read alike, the source gives them in different places.

Experiments:
[1] = pKa and ionization state of ACV and VCV; type: physicochemical; conditions: for ionization state in the donor phase: unbuffered formulations, ACV pH 6.3, VCV pH 5.7
[2] = Cutaneous conversion of VCV to ACV in contact with skin (SC and dermis); type: in vitro ADME, porcine
Protocol: (§1) The aqueous stability of VCV in the donor formulations was investigated by periodic sampling of solutions (2 and 10 mM in water with 15 mM acetaminophen) over a period of 44 hours. In addition, the impact of an electrical current (0.34 mA) on this stability was examined over the same period. The chemical hydrolysis of VCV was also investigated in the presence of PBS pH 7.4. The cutaneous conversion of VCV to ACV via hydrolytic cleavage of the ester bond was verified as follows. Cells were assembled as for an iontophoresis experiment. A 100 μM solution of VCV in PBS pH 7.4 was placed in all the cell compartments and left in contact with the skin (SC and dermis) for 4 hours. The compartments were assayed for ACV and VCV immediately afterwards.

[3] = Iontophoresis across porcine skin in vitro, 3-compartment cells, acetaminophen as electroosmosis marker
Protocol: Porcine ear skin, which is a well-accepted model for human skin (Dick and Scott, 1992; Sekkat et al., 2002), was used in these studies. Porcine ears were obtained from a local abattoir (Société d'Exploitation d'Abbatage, Annecy, France) a few hours after the sacrifice of the animals. The excised skin was then dermatomed (˜750 μm) on the same day and stored at −20° C. for a maximum of two months.
Iontophoresis was performed using vertical 3-compartment cells (FIG. 2). The skin was placed between two half-cells: the upper half, in contact with the SC, comprised two electrode/donor compartments, while the lower receiver compartment was in contact with the dermis. A flow-through system circulated phosphate-buffered normal saline (PBS: 16.8 mM Na2HPO4, 1.4 mM KH2PO4 and 136.9 mM NaCl; pH 7.4) through the receiver chamber (volume 4.7 mL) at a rate of 3 mL/h. Ag/AgCl electrodes were used throughout the study. The skin was allowed to equilibrate for one hour prior to the iontophoresis experiment. In order to reduce competition from Na^+ ions present in the donor, and thus to increase the permeation of VCV, most experiments were performed using a salt bridge assembly. This strategy consists of physically separating the anodal chamber (Ag electrode immersed in PBS pH 7.4) from the donor compartment (drug solution in contact with the SC) and employing a salt bridge (prepared by filling a 12 cm tubing with a warm aqueous solution of 3% agarose and 0.1 M NaCl and then allowed to cool) to electrically connect the two chambers. […] For control experiments without the salt bridge, the anodal compartment contained 1 mL of 10 mM VCV.HCl in PBS pH 7.4. The cathodal compartment contained PBS pH 7.4 in all the experiments. A constant current of 0.34 mA was applied for 7 hours (equivalent to a current density of 0.5 mA/cm^2).
Acetaminophen (ACE, 15 mM) was included in the donor solution as a marker for electroosmotic flow. Being a small, polar and neutral molecule, it is transported mainly by convective solvent flow during iontophoresis. Therefore, its flux can be used to determine the contribution of electroosmosis to the total iontophoretic flux,
where JEO represents the contribution of electroosmosis (EO) to delivery, vA→C is the convective solvent flow from the anode to cathode, and CD is the donor concentration of the drug.
The experiments were performed in sextuplicate, except for passive delivery (n=3), using the skin of as many different animals as possible. Samples were collected hourly and analyzed by high pressure liquid chromatography (HPLC). The HPLC system consisted of a 600 E Controller pump, an Autosampler Injector 717-plus, an In Line Degasser, and a UV 2487 dual λ Detector (Waters, Saint-Quentin Yvelines, France). The separation was performed on a Nucleosil® 100-5 C18 Nautilus column (L: 125 mm; ID: 4.6 mm; Macherey-Nagel, Hoerdt, France) with a 99:1 mixture of 0.1% trifluoroacetic acid (TFA) in water (pH 2.5): MeCN. The flow rate was 1 mL/min, the temperature was adjusted to 30° C., and 50 μL of sample were injected.
The iontophoretic flux (JTOT) of a charged species is considered to be the sum of two separate transport processes—electromigration (JEM) and electroosmosis (JEO), assuming negligible passive skin permeability (Sage Jr., 1995):
JTOT,VCV=JEM,VCV+JEO,VCV (equation 2)
Briefly, electromigration occurs as a result of increased molecular transport in the presence of an applied electric field, whereas electroosmosis refers to transport mediated by the bulk solvent flow across the skin (in the anode-to-cathode direction) due to the skin's permselectivity for cations under physiological conditions.

[4] = cited from earlier work
[5] = pH 7.4, 25°; cited from earlier work
[6] = calculated (Denny, 2003); cited from earlier work
[7] = human skin, 5% w/w (220 mM) ACV ointment, passive; cited from earlier work
[8] = guinea pig skin, 5% w/w (220 mM) ACV ointment, passive; cited from earlier work
[9] = topical 220 mM ACV formulation, rabbits in vivo; cited from earlier work
[10] = cited from earlier work; remark: listed apart in the source
[11] = Aqueous stability of VCV in donor formulations and in PBS pH 7.4; type: physicochemical
Protocol: as §1

[12] = iontophoresis, rabbit skin; cited from earlier work

With `Nc1nc2c(ncn2COCCO)c(=O)[nH]1` [ACV, acyclovir] the “ionization state in the donor phase” value [1] was “effectively uncharged”, the “stability in contact with the skin, donor and receptor chambers” value ([2]; 100 μM, 4 hours, SC and dermis) was “stable” and the donor concentration-normalized flux ([3]; pig, 7 h, 2 mM, pH 6.3) was 0.0024 cm/h. For the same compound, the “mechanism of iontophoretic transport across the skin” value ([3]; unbuffered formulations, ACV pH 6.3, VCV pH 5.7) was “entirely by EO”, the ionized fraction ([4]; pH 3.0) was 20% and the ionized fraction ([4]; pH 7.4) was 2%. The aqueous solubility [5] was 1300 µg/mL (≈ 5.77 mM), the “calculated log P and log D values” [6] was −1.76 and the in vitro flux [7] was 0.24 nmol/cm^2/h. The in vitro flux [8] was 0.21 nmol/cm^2/h, the “dermal concentrations (microdialysis)” value [9] was “below the limit of detection” and the donor concentration-normalized flux ([10]; human skin, physiological pH, iontophoresis) was 0.0027 cm/h. For the same compound, the epidermal concentrations ([10]; iontophoretic administration across human skin) was ~80 µg/mL.

With `CC(C)[C@H](N)C(=O)OCCOCn1cnc2c(=O)[nH]c(N)nc21` [VCV, valaciclovir] the protonated fraction ([1]; physiological pH) was ~50%, the “ionization state in the donor phase” value [1] was “fully protonated” and the “prodrug converted to ACV” value ([11]; PBS pH 7.4, over 7 hrs) was ~12%. For the same compound, the “VCV converted into ACV” value ([11]; unbuffered aqueous solutions (2 and 10 mM) with acetaminophen, 44 hours, absence of a current) was “Less than 1%”, the “extent of degradation of VCV” value ([11]; unbuffered aqueous solutions, presence of a current (0.34 mA), over 7 hours) was ~1% and the “enzymatic conversion after contact with the SC” value ([2]; 100 μM in PBS pH 7.4, 4 hours) was “not observed”. For the same compound, the “hydrolysis after contact with the dermis” value ([2]; 100 μM in PBS pH 7.4, 4 hours, receiver (dermal) compartment) was “completely hydrolyzed to ACV”, the “mechanism of iontophoretic transport across the skin” value [3] was “almost entirely to electromigration (EM)” and the “average flux Jt=0-3 h” value ([3]; pig, 2 mM) was 385±158 nmol/cm^2/h. The “average flux Jt=0-3 h” value ([3]; pig, 10 mM) was 479±258 nmol/cm^2/h, the “flux Jt=0-7 h” value ([3]; pig, 10 mM) was 510±219 nmol/cm^2/h and the “amount reaching the receptor as fraction of the applied dose” value ([3]; pig, 4 h, 2 mM) was 50%. The “EM contribution to the total flux” value ([3]; pig, 7 h, 10 mM, pH 7.4) was 73%, the transport number ([3]; pig, 7 h, pH 7.4) was ~0.03 and the “calculated log P and log D values” [6] was −0.78.

For `CC12CCC3C(CC=C4CC(OC(=O)CN)CCC43C)C1CCC2=O` (centres unmarked) [glycyl ester of DHEA], the “increase in permeation compared to the parent DHEA” value [12] is listed as 3 fold.
